Experimental data: ChEMBL document CHEMBL5465560, “Selectivity Literature for EUbOPEN Chemogenomic Library” (2024)
One block for each compound: values may come before it.

How the values were obtained:
[1] = target: Tyrosine-protein kinase BTK (Homo sapiens, UniProt Q06187); test: Selectivity interaction (ActivX KiNativ screen (ex vivo kinase selectivity in human PBMCs)) EUB0001619a BTK; assay type: cell-based; details: PBMC, at 1 µM
[2] = target: T1, Serine/threonine-protein kinase LATS1 (Homo sapiens) (UniProt O95835); test: Selectivity interaction (Kinase panel (KiNativ target engagement assay in Jurkat cells)) EUB0001635a LATS1; assay type: cell-based; details: at 1 µM
T1 sequence (whole entry): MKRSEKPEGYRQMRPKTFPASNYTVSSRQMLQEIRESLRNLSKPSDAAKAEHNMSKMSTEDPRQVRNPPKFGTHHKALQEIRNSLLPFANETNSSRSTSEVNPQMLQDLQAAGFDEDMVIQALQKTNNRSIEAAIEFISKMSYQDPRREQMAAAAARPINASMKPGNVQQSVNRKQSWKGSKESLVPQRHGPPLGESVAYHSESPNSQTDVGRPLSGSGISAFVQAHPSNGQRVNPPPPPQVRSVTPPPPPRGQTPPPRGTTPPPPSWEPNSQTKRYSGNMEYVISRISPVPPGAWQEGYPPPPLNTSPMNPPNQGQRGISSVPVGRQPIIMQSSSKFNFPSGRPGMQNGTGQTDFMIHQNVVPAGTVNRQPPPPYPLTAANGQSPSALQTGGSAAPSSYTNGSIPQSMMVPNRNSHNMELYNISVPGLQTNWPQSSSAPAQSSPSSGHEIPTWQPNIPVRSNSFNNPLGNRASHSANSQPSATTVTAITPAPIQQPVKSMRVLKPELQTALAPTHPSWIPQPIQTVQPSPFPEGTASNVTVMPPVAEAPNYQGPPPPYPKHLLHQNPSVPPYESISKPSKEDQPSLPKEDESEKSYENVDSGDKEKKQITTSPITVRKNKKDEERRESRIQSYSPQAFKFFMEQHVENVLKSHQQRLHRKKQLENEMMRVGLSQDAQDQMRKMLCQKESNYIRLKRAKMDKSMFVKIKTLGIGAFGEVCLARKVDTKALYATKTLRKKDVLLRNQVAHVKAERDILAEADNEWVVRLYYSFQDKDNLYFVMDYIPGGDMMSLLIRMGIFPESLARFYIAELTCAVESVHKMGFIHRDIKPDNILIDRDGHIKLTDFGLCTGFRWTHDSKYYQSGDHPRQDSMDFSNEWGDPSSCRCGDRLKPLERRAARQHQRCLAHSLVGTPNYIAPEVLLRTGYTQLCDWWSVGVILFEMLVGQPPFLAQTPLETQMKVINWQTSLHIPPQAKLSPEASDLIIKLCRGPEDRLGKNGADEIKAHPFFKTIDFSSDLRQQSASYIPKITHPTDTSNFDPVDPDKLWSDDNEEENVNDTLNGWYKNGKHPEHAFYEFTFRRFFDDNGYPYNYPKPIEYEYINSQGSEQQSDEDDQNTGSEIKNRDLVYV

[3] = target: T2, Inhibitor of nuclear factor kappa-B kinase subunit beta (Homo sapiens) (UniProt O14920); test: Selectivity interaction (Kinase panel (KiNativ target engagement assay in Jurkat cells)) EUB0001635a IKBKB; assay type: cell-based; details: Selectivity number of off-targets 0.0, Selectivity number of targets 233.0, Source Knowledge https://www.sciencedirect.com/science/article/pii/S2451945619300674?via%3Dihub, at 1 µM
T2 sequence (whole entry): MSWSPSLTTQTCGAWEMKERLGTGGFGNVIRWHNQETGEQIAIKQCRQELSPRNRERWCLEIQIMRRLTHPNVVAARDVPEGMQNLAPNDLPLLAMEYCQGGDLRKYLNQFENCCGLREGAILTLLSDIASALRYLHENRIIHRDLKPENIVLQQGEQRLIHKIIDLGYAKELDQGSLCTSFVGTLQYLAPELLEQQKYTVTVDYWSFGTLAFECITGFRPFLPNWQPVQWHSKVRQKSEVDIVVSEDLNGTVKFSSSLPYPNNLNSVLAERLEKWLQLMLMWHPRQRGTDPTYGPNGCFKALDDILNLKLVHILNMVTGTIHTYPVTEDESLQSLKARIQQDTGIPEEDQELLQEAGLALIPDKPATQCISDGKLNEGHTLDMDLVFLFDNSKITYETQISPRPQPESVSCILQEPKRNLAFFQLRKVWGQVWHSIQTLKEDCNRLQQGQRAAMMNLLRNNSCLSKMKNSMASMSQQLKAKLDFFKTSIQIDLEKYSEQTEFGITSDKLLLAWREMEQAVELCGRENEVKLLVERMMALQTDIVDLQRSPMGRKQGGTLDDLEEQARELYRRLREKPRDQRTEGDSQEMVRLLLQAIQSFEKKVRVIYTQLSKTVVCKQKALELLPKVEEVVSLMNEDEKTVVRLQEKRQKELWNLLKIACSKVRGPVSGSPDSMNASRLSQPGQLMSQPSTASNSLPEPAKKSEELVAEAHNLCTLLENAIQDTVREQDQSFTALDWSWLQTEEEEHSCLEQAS

[4] = target: Tyrosine-protein kinase Lyn (Homo sapiens, UniProt P07948); test: Selectivity interaction (Kinase panel (Invitrogen)) EUB0000639a LYN; details: at 200 nM
Chain of Tyrosine-protein kinase Lyn (P07948 2-512 limits assumed): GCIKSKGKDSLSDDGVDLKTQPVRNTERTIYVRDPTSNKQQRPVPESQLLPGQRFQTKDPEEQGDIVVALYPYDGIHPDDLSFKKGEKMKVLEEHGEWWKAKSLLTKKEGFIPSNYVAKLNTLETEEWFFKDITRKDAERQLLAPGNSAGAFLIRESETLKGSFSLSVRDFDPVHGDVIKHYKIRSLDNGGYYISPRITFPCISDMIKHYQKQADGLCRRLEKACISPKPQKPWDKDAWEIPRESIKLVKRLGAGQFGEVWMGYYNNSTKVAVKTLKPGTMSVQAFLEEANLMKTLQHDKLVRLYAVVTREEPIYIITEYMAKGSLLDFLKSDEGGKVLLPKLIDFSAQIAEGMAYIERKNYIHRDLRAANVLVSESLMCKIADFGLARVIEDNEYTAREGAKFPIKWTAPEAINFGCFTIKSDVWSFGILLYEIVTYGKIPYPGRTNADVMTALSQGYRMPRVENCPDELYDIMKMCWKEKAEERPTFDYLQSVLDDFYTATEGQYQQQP

[5] = target: 5-hydroxytryptamine receptor 2B (Homo sapiens, UniProt P41595); test: Selectivity interaction (Safety Panel 44tm (Eurofins)) EUB0000162b HTR2B; details: at 10 µM
Chain of 5-hydroxytryptamine receptor 2B (P41595 whole entry): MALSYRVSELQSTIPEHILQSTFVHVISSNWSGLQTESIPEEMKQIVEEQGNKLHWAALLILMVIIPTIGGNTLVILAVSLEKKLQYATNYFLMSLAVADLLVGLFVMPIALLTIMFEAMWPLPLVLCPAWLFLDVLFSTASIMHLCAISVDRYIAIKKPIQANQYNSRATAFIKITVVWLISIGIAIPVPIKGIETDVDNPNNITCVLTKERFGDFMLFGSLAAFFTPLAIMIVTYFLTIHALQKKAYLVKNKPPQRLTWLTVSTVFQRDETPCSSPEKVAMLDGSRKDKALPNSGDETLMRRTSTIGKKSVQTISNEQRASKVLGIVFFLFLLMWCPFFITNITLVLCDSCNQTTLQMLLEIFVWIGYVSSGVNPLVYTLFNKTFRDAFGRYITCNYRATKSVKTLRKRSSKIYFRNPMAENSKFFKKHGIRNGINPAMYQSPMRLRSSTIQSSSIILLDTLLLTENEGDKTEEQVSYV

Chain of Tyrosine-protein kinase BTK (Q06187 whole entry): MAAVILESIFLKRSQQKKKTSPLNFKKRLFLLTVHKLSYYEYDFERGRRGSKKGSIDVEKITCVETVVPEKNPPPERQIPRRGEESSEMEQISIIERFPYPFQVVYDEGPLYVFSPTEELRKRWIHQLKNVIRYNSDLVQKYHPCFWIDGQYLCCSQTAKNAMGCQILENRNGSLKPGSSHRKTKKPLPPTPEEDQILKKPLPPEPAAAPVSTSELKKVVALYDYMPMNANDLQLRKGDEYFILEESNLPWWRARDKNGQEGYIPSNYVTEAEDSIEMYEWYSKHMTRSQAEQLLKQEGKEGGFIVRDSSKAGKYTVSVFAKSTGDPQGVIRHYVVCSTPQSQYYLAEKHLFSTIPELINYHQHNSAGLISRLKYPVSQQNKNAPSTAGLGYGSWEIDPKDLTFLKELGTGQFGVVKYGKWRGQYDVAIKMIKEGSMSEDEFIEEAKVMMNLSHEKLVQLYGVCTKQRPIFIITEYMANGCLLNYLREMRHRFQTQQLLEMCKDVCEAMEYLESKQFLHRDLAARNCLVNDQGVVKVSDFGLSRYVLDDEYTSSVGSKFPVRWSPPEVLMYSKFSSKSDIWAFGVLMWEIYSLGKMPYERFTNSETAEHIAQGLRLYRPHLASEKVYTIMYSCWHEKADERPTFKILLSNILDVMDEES

SMILES: N#Cc1cccc(-c2c[nH]c3ncnc(N4CCOCC4)c23)c1
% of inhibition [1]: 10%

SMILES: C=CC(=O)Nc1ccc(C(=O)Nc2[nH]nc3c2CN(C(=O)N[C@H](CN(C)C)c2ccccc2)C3(C)C)cc1
% of engagement [2]: 7.2%
% of engagement [3]: -20.2%

% of inhibition [4]: 14.9%
SMILES: CC[C@@H]1[C@H](F)C(=O)N[C@@H]1COc1nccc2cc(C(N)=O)c(OC)cc12 [ZIMLOVISERTIB]

SMILES: CN(C)C(=O)Cn1cc(-c2ccc(-c3cncc4ccccc34)cc2)cn1
% of control [5]: 34%
